Measured values taken from US11918662B2, “Heterocyclic compounds and imaging agents for imaging huntingtin protein” (CHDI Foundation, Inc., priority 2020, dated 2024).

molecular target: T1, MBP-HTT(1-89)Q46-His(6×) (“Exon1-Q46”) protein aggregates (Homo sapiens, UniProt P42858, INS38QQQQQQQQQQQQQQQQQQQQQQQQQ); assay: Exon1-Q46 Radioligand Binding Assay; conditions: not given
T1 construct: MBP-HTT(1-89)Q46-His(6×); His(6×) (C); made in house
Procedure: Exon1-Q46 Radioligand Binding Assay
For experiments 30 μM MBP-Exon1-Q46 was incubated with 150 μg/mL thrombin in assay buffer (150 mM NaCl, 50 mM Tris pH 8.0) and 2 mM CaCl2 for 16 hours at 37° C. Aggregated Exon1-Q46 was pelleted by centrifugation for 5 minutes at 13,000 rpm in a bench top centrifuge and re-dissolved in the same volume of assay buffer. […] For the RBA, Q46 protein aggregates and test compounds were pre-incubated in assay buffer for 20 minutes at room temperature, in 100 μL/well in a 96-well plate (pp, round bottom). Then, ligand was added in 50 μL/well and incubated for 60 minutes at 37° C. Final assay concentrations were […] test compound, 1 μM Exon1-Q46 protein (equivalent monomer concentration) and 0.3 nM ligand [^3H3-methyl]-5-((5-methoxypyridin-2-yl)methoxy)-2-(pyrazin-2-yl)benzo[d]oxazole. Samples were transferred onto GF/B filter plates and washed 2× with 200 μL PBS using a Filtermate Harvester. After drying filter plates for 1 hour at 55° C., the back of the plates were sealed with foil and 30 μL/well scintillation fluid (Packard MicroScint 40) added, incubated for 15 minutes in the dark and counted in a MicroBeta reader. […] IC50 values were determined with a sigmoidal inhibition model with four variables (top, bottom, slope, IC50) in a global fit using the normalized replicate data.

T1 sequence (P42858 with tags, fused parts or gaps with the stated changes limits assumed): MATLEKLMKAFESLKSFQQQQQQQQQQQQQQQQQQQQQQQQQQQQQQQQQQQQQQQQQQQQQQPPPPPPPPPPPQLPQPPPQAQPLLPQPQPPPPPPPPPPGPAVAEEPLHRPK

For `COc1ccc(NC(=O)CCCn2c(=O)c3cccn3c3ccccc32)nc1` [Example 5-5], the IC50 was less than 100 nM.

same assay, conditions: displacement of 0.3 nM [3H3-methyl]-5-((5-methoxypyridin-2-yl)methoxy)-2-(pyrazin-2-yl)benzo[d]oxazole from 1 μM aggregated Exon1-Q46, 60 minutes at 37° C.; read-out: Potency Range (IC50)

`O=C(CCn1c(=O)c2cccn2c2ccc(F)cc21)Nc1ccncc1` [Example 3-18] and `O=C(CCn1c(=O)c2cccn2c2ccc(F)cc21)Nc1cccnc1` [Example 3-23] cannot be ordered by IC50: less than 100 nM for the first, less than 100 nM for the second.

`O=C(CCn1c(=O)c2cccn2c2ccc(F)cc21)Nc1ccccn1` [Example 3-19] and `Cc1ccc(NC(=O)CCn2c(=O)c3cccn3c3ccc(F)cc32)nc1` [Example 3-24] cannot be ordered by IC50: less than 100 nM for the first, less than 100 nM for the second.

`COc1cccc(NC(=O)CCn2c(=O)c3cccn3c3ccc(F)cc32)c1` [Example 3-20] and `Cc1cccc(NC(=O)CCn2c(=O)c3cccn3c3ccc(F)cc32)c1` [Example 3-21] cannot be ordered by IC50: less than 100 nM for the first, less than 100 nM for the second.

`O=C(CCn1c(=O)c2cccn2c2ccc(F)cc21)Nc1ccccc1` [Example 3-22] and `O=C(CCn1c(=O)c2cccn2c2ccc(F)cc21)NCc1ccccc1` [Example 3-28] cannot be ordered by IC50: less than 100 nM for the first, less than 100 nM for the second.

`O=C(CCn1c(=O)c2cccn2c2ccc(F)cc21)Nc1cccc(Cl)c1` [Example 3-25] and `O=C(CCn1c(=O)c2cccn2c2ccc(F)cc21)Nc1ccc(Cl)cc1` [Example 3-26] cannot be ordered by IC50: less than 100 nM for the first, less than 100 nM for the second.

`Cc1ccccc1NC(=O)CCn1c(=O)c2cccn2c2ccc(F)cc21` [Example 3-27] and `O=C(CCn1c(=O)c2cccn2c2ccc(F)cc21)NCCc1ccccc1` [Example 3-30] cannot be ordered by IC50: less than 100 nM for the first, less than 100 nM for the second.

`COC1CCC(NC(=O)CCn2c(=O)c3cccn3c3ccc(F)cc32)CC1` (stereo not drawn) [Example 3-29] and `CC1CCC(NC(=O)CCn2c(=O)c3cccn3c3ccc(F)cc32)CC1` (stereo not drawn) [Example 3-32] cannot be ordered by IC50: less than 100 nM for the first, less than 100 nM for the second.

`O=C(CCn1c(=O)c2cccn2c2ccc(F)cc21)N1Cc2ccccc2C1` [Example 3-31] and `O=C(CCn1c(=O)c2cccn2c2ccc(F)cc21)N1CCc2ccccc2C1` [Example 3-44] cannot be ordered by IC50: less than 100 nM for the first, less than 100 nM for the second.

`O=C(CCn1c(=O)c2cccn2c2ccc(F)cc21)NCCc1cccnc1` [Example 3-33] and `CCNC(=O)CCn1c(=O)c2cccn2c2ccc(F)cc21` [Example 3-38] cannot be ordered by IC50: less than 100 nM for the first, less than 100 nM for the second.

`O=C(CCn1c(=O)c2cccn2c2ccc(F)cc21)NC1CCCCC1` [Example 3-34] and `O=C(CCn1c(=O)c2cccn2c2ccc(F)cc21)NC1CCCC1` [Example 3-37] cannot be ordered by IC50: less than 100 nM for the first, less than 100 nM for the second.

`O=C(CCn1c(=O)c2cccn2c2ccc(F)cc21)NCC1CCCCC1` [Example 3-35] and `O=C(CCn1c(=O)c2cccn2c2ccc(F)cc21)N1CCCC1` [Example 3-43] cannot be ordered by IC50: less than 100 nM for the first, less than 100 nM for the second.

First: CN(C)C(=O)CCn1c(=O)c2cccn2c2ccc(F)cc21 [Example 3-36]
Second: CN(C)CCNC(=O)CCn1c(=O)c2cccn2c2ccc(F)cc21 [Example 3-39]
The IC50 of the first is lower: less than 100 nM for the first, 100 to 500 nM for the second. The first is the more potent here.

`COC1CCN(C(=O)CCn2c(=O)c3cccn3c3ccc(F)cc32)C1` (stereo not drawn) [Example 3-40] and `O=C(CCn1c(=O)c2cccn2c2ccc(F)cc21)N1CCCC(C(F)(F)F)C1` (stereo not drawn) [Example 3-41] cannot be ordered by IC50: less than 100 nM for the first, less than 100 nM for the second.

`O=C(CCn1c(=O)c2cccn2c2ccc(F)cc21)N1CCC(C(F)(F)F)CC1` [Example 3-42] and `O=C(CCn1c(=O)c2cccn2c2ccc(F)cc21)N1CCc2ncccc2C1` [Example 3-50] cannot be ordered by IC50: less than 100 nM for the first, less than 100 nM for the second.

`CC1CCC(N(C)C(=O)CCn2c(=O)c3cccn3c3ccc(F)cc32)CC1` (stereo not drawn) [Example 3-45] and `O=C(CCn1c(=O)c2cccn2c2ccc(F)cc21)N1CCc2cccnc21` [Example 3-53] cannot be ordered by IC50: less than 100 nM for the first, less than 100 nM for the second.

`O=C(CCn1c(=O)c2cccn2c2ccc(F)cc21)N1CCc2ccccc21` [Example 3-46] and `O=C(CCn1c(=O)c2cccn2c2ccc(F)cc21)N1CCCc2ccccc21` [Example 3-47] cannot be ordered by IC50: less than 100 nM for the first, less than 100 nM for the second.

`COc1cc2c(cn1)CCN(C(=O)CCn1c(=O)c3cccn3c3ccc(F)cc31)C2` [Example 3-48] and `O=C(CCn1c(=O)c2cccn2c2ccc(F)cc21)N1CCc2cnccc2C1` [Example 3-51] cannot be ordered by IC50: less than 100 nM for the first, less than 100 nM for the second.

`Cn1c2c(ccc1=O)CN(C(=O)CCn1c(=O)c3cccn3c3ccc(F)cc31)CC2` [Example 3-49] and `O=C(CCn1c(=O)c2cccn2c2ccc(F)cc21)N1CCc2ccncc2C1` [Example 3-52] cannot be ordered by IC50: less than 100 nM for the first, less than 100 nM for the second.

`O=C(CCn1c(=O)c2cccn2c2ccc(F)cc21)N1Cc2ccncc2C1` [Example 3-54] and `O=C(CCn1c(=O)c2cc(F)cn2c2ccc(F)cc21)N1Cc2ccncc2C1` [Example 3-64] cannot be ordered by IC50: less than 100 nM for the first, less than 100 nM for the second.

`O=C(CCn1c(=O)c2cccn2c2ccc(F)cc21)N1Cc2cccnc2C1` [Example 3-55] and `O=C(CCn1c(=O)c2cccn2c2ccc(F)cc21)N1CCc2cccnc2C1` [Example 3-56] cannot be ordered by IC50: less than 100 nM for the first, less than 100 nM for the second.

`O=C(CCn1c(=O)c2cccn2c2ccc(F)cc21)N1CCc2ccncc21` [Example 3-57] and `O=C(CCn1c(=O)c2cccn2c2ccc(F)cc21)N1CCc2cnccc21` [Example 3-58] cannot be ordered by IC50: less than 100 nM for the first, less than 100 nM for the second.

`O=C(CCn1c(=O)c2cccn2c2ccc(F)cc21)N1CCc2ncccc21` [Example 3-59] and `O=C(CCn1c(=O)c2cc(F)cn2c2ccc(F)cc21)N1Cc2cccnc2C1` [Example 3-65] cannot be ordered by IC50: less than 100 nM for the first, less than 100 nM for the second.

`COc1ccc(NC(=O)CCn2c(=O)c3c(C)ccn3c3ccc(F)cc32)nc1` [Example 3-60] and `COc1ccc(NC(=O)CCn2c(=O)c3c(Cl)ccn3c3ccc(F)cc32)nc1` [Example 3-61] cannot be ordered by IC50: less than 100 nM for the first, less than 100 nM for the second.

`O=C(CCn1c(=O)c2cc(F)cn2c2ccc(F)cc21)NCc1ccccn1` [Example 3-62] and `Cc1ccc(CNC(=O)CCn2c(=O)c3cc(F)cn3c3ccc(F)cc32)nc1` [Example 3-63] cannot be ordered by IC50: less than 100 nM for the first, less than 100 nM for the second.

`COc1ccc(NC(=O)CCn2c(=O)c3cc(F)cn3c3ccc(F)cc32)nc1` [Example 3-66] and `COc1ccc(NC(=O)CCn2c(=O)c3cc(C)cn3c3ccc(F)cc32)nc1` [Example 3-67] cannot be ordered by IC50: less than 100 nM for the first, less than 100 nM for the second.

`Cc1ccc(NC(=O)CCn2c(=O)c3cccn3c3ccccc32)cn1` [Example 3-68] and `Cc1ccc(NC(=O)CCCn2c(=O)c3cccn3c3ccccc32)cc1` [Example 5-1] cannot be ordered by IC50: less than 100 nM for the first, less than 100 nM for the second.

Compared with `Cc1ccc(NC(=O)CCNc2cc(F)ccc2-n2cccn2)cc1` [Example 3-69], `Cc1ccc(NC(=O)CCCn2c(=O)c3nccn3c3ccc(F)cc32)cc1` [Example 5-12] is lower in IC50: 100 to 500 nM for the first, less than 100 nM for the second. The second is the more potent here.

`Cc1ccc(NC(=O)CCCn2c(=O)c3cccn3c3ncccc32)cc1` [Example 4-1] and `Cc1ccc(NC(=O)CCCn2c(=O)c3cccn3c3cccnc32)cc1` [Example 4-6] cannot be ordered by IC50: less than 100 nM for the first, less than 100 nM for the second.

`COc1ccc(NC(=O)CCCn2c(=O)c3cccn3c3ncccc32)cc1` [Example 4-2] and `COc1ccc(NC(=O)CCCn2c(=O)c3cccn3c3cccnc32)cc1` [Example 4-7] cannot be ordered by IC50: less than 100 nM for the first, less than 100 nM for the second.

`COc1cccc(NC(=O)CCCn2c(=O)c3cccn3c3ncccc32)c1` [Example 4-3] and `COc1cccc(NC(=O)CCCn2c(=O)c3cccn3c3cccnc32)c1` [Example 4-5] cannot be ordered by IC50: less than 100 nM for the first, less than 100 nM for the second.

`COc1ccnc(NC(=O)CCCn2c(=O)c3cccn3c3ncccc32)c1` [Example 4-4] and `COc1ccnc(NC(=O)CCCn2c(=O)c3cccn3c3cccnc32)c1` [Example 4-8] cannot be ordered by IC50: less than 100 nM for the first, less than 100 nM for the second.

`COc1ccc(NC(=O)CCCn2c(=O)c3cccn3c3cccnc32)nc1` [Example 4-9] and `COc1ccc(NC(=O)CCCn2c(=O)c3cccn3c3ccc(OC)cc32)nc1` [Example 5-9] cannot be ordered by IC50: less than 100 nM for the first, less than 100 nM for the second.

Compared with `O=C(CCCn1c(=O)c2cccn2c2cccnc21)NC1CCCCCC1` [Example 4-10], `O=C(CCCn1c(=O)c2cccn2c2ccccc21)NC1CCCCCC1` [Example 5-15] is higher in IC50: less than 100 nM for the first, 100 to 500 nM for the second. The first is the more potent here.

`COc1ccc(NC(=O)CCCn2c(=O)c3cccn3c3ccccc32)cc1` [Example 5-2] and `COc1cccc(NC(=O)CCCn2c(=O)c3cccn3c3ccccc32)c1` [Example 5-3] cannot be ordered by IC50: less than 100 nM for the first, less than 100 nM for the second.

`COc1ccnc(NC(=O)CCCn2c(=O)c3cccn3c3ccccc32)c1` [Example 5-4] and `COc1ccnc(NC(=O)CCCn2c(=O)c3cccn3c3ccc(OC)cc32)c1` [Example 5-10] cannot be ordered by IC50: less than 100 nM for the first, less than 100 nM for the second.

`COc1ccc2c(c1)n(CCCC(=O)Nc1ccc(C)cc1)c(=O)c1cccn12` [Example 5-6] and `COc1ccc(NC(=O)CCCn2c(=O)c3cccn3c3ccc(OC)cc32)cc1` [Example 5-7] cannot be ordered by IC50: less than 100 nM for the first, less than 100 nM for the second.

`COc1cccc(NC(=O)CCCn2c(=O)c3cccn3c3ccc(OC)cc32)c1` [Example 5-8] and `COc1cccc(NC(=O)CCCn2c(=O)c3nccn3c3ccc(F)cc32)c1` [Example 5-11] cannot be ordered by IC50: less than 100 nM for the first, less than 100 nM for the second.

First: COc1ccnc(NC(=O)CCCn2c(=O)c3nccn3c3ccc(F)cc32)c1 [Example 5-13]
Second: COc1ccc(NC(=O)CCCn2c(=O)c3nccn3c3ccc(F)cc32)nc1 [Example 5-14]
The IC50 of the first is higher: 100 to 500 nM for the first, less than 100 nM for the second. The second is the more potent here.

`O=C(CCCn1c(=O)c2cccn2c2ccccc21)N1CCCCC1` [Example 5-18] showed an IC50 of less than 100 nM.
